≈ marks a conversion by molar mass, not a printed value.
Experiments:
[1] = target: Tyrosine-protein kinase BTK (Homo sapiens) (UniProt Q06187); test: Inhibition of human BTK in HL-60 cells lysate assessed as reduction of labeling of acyl-phosphate ATP probe at 100 nM; type: cell-free
[2] = target: Misshapen-like kinase 1 (Homo sapiens) (UniProt Q8N4C8); test: Inhibition of human ZC3/MINK in HL-60 cells lysate assessed as reduction of labeling of acyl-phosphate ATP probe at 100 nM; type: cell-free
Chain of Misshapen-like kinase 1 (Homo sapiens) (Q8N4C8 whole entry, looked up): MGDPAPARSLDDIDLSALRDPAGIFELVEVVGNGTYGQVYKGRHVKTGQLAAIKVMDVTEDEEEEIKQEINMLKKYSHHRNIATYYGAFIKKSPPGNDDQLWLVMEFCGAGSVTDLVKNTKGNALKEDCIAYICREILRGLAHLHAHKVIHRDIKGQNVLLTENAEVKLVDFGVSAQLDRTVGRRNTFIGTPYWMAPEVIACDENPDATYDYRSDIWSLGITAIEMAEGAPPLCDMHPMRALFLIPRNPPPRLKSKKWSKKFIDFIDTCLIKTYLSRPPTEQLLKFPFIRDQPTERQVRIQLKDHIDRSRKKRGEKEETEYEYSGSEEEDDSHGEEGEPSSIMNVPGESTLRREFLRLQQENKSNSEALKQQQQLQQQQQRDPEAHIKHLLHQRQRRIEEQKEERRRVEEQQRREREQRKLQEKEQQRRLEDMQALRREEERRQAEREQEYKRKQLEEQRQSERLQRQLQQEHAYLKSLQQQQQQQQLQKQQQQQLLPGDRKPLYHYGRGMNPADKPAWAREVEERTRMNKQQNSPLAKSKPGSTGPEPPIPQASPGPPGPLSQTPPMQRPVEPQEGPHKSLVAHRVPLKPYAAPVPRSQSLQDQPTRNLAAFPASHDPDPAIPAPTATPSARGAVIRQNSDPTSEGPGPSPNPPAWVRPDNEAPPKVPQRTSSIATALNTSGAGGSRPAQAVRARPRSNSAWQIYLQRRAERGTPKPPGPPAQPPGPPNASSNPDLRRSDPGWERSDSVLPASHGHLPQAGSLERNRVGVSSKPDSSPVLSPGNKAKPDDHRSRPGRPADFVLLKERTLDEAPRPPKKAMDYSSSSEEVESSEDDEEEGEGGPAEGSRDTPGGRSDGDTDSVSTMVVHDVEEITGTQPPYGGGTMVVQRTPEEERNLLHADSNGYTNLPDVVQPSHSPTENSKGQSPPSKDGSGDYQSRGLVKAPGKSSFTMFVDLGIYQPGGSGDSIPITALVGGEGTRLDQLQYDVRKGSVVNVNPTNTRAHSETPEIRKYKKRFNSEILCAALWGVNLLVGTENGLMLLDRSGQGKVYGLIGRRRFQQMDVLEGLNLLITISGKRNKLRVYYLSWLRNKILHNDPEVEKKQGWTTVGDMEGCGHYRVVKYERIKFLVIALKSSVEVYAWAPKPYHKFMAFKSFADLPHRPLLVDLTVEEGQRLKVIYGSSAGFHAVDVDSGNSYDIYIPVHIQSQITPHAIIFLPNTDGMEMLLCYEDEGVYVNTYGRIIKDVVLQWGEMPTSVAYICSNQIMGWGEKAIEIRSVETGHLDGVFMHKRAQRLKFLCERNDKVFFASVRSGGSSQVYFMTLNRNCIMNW

HL-60 [3] = test: Inhibition of human P38delta/P38gamma in HL-60 cells lysate assessed as reduction of labeling of acyl-phosphate ATP probe at 100 nM
[4] = target: T1, Interleukin-1 receptor-associated kinase 3 (Homo sapiens) (UniProt Q9Y616); test: Inhibition of human IRAK3 in HL-60 cells lysate assessed as reduction of labeling of acyl-phosphate ATP probe at 100 nM; type: cell-free
T1 sequence (whole entry): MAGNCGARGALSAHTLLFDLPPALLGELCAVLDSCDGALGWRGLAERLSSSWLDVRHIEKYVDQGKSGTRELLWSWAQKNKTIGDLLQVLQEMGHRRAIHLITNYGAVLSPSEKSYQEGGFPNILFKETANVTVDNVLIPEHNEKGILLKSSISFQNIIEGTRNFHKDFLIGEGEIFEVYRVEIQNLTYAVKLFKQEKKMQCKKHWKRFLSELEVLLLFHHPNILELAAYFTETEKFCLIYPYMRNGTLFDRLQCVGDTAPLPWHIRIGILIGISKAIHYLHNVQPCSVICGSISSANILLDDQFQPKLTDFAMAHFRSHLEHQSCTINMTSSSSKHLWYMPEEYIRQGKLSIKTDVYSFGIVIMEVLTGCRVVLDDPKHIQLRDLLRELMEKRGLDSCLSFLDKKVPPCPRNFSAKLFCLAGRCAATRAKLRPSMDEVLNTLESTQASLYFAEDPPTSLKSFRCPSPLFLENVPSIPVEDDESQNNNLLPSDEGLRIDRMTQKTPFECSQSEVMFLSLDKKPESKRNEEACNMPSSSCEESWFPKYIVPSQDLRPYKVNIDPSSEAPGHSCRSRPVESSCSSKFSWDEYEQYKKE

[5] = target: T2, Dual specificity mitogen-activated protein kinase kinase 3 (Homo sapiens) (UniProt P46734); test: Inhibition of human MAP2K3 in HL-60 cells lysate assessed as reduction of labeling of acyl-phosphate ATP probe at 100 nM; type: cell-free
T2 sequence (whole entry): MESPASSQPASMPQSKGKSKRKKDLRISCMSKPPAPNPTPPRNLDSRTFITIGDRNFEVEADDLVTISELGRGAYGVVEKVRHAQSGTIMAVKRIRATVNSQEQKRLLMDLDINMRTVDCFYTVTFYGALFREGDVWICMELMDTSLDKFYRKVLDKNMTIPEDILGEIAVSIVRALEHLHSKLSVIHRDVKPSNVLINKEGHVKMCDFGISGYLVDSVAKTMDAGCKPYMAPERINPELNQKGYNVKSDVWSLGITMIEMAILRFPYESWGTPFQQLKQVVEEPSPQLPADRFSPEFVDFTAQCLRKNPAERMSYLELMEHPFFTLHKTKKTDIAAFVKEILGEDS

[6] = target: Serine/threonine-protein kinase B-raf (Homo sapiens) (UniProt P15056); test: Inhibition of human BRAF in HL-60 cells lysate assessed as reduction of labeling of acyl-phosphate ATP probe at 100 nM; type: cell-free
[7] = target: IKK epsilon/TBK1 (Homo sapiens) (UniProt Q14164+Q9UHD2); test: Inhibition of human IKKepsilon/TBK1 in HL-60 cells lysate assessed as reduction of labeling of acyl-phosphate ATP probe at 100 nM; type: cell-free
[8] = target: 1-phosphatidylinositol 3-phosphate 5-kinase (Homo sapiens) (UniProt Q9Y2I7); test: Inhibition of human PIP5K3 in HL-60 cells lysate assessed as reduction of labeling of acyl-phosphate ATP probe at 100 nM; type: cell-free
Chain of 1-phosphatidylinositol 3-phosphate 5-kinase (Homo sapiens) (Q9Y2I7 whole entry): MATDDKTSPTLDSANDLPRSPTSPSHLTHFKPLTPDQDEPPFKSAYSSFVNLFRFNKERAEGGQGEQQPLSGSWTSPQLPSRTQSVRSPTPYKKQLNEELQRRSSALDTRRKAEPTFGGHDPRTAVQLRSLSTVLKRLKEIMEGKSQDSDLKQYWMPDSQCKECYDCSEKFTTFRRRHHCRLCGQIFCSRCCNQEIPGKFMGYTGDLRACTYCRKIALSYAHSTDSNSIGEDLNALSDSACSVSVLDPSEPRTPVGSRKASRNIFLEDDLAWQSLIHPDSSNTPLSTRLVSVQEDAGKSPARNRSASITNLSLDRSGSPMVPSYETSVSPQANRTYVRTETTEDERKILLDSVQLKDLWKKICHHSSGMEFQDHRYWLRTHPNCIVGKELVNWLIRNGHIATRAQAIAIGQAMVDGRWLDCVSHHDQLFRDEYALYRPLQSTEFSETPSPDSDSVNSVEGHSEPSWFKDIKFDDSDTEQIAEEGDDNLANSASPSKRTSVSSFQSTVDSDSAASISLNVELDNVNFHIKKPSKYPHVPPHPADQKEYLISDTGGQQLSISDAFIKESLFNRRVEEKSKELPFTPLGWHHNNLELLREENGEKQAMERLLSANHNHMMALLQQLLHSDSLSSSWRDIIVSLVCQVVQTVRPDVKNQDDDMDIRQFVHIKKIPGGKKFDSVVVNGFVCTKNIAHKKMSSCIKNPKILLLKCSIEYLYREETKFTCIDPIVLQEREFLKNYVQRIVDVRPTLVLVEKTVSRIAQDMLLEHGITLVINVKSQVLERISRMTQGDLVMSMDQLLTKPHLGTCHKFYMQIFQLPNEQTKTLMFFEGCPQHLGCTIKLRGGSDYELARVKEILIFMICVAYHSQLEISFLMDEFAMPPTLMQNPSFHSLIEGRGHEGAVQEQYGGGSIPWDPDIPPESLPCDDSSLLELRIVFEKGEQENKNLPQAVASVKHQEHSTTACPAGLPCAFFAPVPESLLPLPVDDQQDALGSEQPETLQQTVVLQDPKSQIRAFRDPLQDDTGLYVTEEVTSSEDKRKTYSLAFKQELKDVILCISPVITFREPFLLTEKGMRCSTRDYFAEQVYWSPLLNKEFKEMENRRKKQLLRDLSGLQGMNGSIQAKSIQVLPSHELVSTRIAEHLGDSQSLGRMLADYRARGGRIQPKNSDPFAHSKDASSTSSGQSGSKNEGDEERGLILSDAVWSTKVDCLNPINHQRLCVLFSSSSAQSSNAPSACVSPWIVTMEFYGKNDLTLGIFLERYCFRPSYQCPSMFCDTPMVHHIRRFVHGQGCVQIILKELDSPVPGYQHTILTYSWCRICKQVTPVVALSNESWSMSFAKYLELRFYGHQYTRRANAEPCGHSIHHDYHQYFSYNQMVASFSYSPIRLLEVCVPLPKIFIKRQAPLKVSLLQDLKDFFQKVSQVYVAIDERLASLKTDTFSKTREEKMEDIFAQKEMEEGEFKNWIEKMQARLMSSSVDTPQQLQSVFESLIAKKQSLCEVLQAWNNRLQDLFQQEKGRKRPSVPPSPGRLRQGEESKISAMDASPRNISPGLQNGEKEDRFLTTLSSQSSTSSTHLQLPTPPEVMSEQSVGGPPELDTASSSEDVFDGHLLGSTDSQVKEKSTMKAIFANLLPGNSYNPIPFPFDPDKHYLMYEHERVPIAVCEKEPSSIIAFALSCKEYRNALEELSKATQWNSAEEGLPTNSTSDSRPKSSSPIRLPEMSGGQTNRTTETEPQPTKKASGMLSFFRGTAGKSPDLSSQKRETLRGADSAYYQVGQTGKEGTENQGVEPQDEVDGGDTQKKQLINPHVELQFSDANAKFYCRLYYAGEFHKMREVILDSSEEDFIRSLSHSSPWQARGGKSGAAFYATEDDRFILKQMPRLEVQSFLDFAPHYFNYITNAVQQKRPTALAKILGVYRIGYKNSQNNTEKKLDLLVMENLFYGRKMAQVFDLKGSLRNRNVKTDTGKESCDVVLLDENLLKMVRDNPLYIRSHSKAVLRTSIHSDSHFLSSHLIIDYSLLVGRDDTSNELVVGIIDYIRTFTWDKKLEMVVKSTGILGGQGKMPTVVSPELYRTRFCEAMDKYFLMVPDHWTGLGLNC

Escherichia coli = test: Antibacterial activity against Escherichia coli ATCC 8739; type: ADME, organism-based
[9] = target: Glycogen synthase kinase-3 beta (Homo sapiens, UniProt P49841); test: Inhibition of GSK3-beta
Chain of Glycogen synthase kinase-3 beta (P49841 whole entry): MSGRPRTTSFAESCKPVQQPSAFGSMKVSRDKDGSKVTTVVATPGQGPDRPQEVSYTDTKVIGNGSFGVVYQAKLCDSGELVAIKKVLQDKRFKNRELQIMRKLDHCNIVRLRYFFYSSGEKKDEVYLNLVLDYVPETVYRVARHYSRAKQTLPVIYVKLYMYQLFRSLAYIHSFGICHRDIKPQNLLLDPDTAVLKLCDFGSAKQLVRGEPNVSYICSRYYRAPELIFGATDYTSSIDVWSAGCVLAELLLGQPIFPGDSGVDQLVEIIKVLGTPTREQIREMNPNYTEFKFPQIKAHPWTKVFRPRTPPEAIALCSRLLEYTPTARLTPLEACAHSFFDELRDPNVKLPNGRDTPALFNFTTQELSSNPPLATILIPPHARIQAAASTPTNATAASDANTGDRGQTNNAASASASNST

HL-60 [10] = test: Inhibition of human CDK11/CDK8 in HL-60 cells lysate assessed as reduction of labeling of acyl-phosphate ATP probe at 100 nM
[11] = target: Serine/threonine-protein kinase PLK1 (Homo sapiens) (UniProt P53350); test: Inhibition of human PLK1 in HL-60 cells lysate assessed as reduction of labeling of acyl-phosphate ATP probe at 100 nM; type: cell-free
Chain of Serine/threonine-protein kinase PLK1 (Homo sapiens) (P53350 whole entry): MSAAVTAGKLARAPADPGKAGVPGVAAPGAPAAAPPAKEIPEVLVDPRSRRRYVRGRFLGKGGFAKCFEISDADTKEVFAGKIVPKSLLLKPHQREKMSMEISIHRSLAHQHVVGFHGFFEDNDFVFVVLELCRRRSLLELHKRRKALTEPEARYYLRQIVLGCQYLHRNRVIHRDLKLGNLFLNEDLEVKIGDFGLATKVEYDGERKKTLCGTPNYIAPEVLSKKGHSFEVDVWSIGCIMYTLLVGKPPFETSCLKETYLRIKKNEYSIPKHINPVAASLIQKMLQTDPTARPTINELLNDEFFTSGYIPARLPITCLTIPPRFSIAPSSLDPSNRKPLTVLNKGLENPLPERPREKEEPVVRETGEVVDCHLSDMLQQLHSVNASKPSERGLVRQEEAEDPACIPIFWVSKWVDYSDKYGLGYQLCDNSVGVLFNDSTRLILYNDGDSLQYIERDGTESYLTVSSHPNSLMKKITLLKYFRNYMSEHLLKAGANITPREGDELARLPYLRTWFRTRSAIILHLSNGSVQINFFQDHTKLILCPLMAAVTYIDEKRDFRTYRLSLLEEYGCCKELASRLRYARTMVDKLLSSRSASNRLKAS

[12] = target: Serine/threonine-protein kinase 10 (Homo sapiens) (UniProt O94804); test: Inhibition of human LOK in HL-60 cells lysate assessed as reduction of labeling of acyl-phosphate ATP probe at 100 nM; type: cell-free
[13] = target: Tyrosine-protein kinase JAK1 (Homo sapiens) (UniProt P23458); test: Inhibition of human JAK1 domain1 in HL-60 cells lysate assessed as reduction of labeling of acyl-phosphate ATP probe at 100 nM; type: cell-free
[14] = target: T3, Phosphatidylinositol 5-phosphate 4-kinase type-2 beta (Homo sapiens) (UniProt P78356); test: Inhibition of human PIP4K2B in HL-60 cells lysate assessed as reduction of labeling of acyl-phosphate ATP probe at 100 nM; type: cell-free
T3 sequence (whole entry): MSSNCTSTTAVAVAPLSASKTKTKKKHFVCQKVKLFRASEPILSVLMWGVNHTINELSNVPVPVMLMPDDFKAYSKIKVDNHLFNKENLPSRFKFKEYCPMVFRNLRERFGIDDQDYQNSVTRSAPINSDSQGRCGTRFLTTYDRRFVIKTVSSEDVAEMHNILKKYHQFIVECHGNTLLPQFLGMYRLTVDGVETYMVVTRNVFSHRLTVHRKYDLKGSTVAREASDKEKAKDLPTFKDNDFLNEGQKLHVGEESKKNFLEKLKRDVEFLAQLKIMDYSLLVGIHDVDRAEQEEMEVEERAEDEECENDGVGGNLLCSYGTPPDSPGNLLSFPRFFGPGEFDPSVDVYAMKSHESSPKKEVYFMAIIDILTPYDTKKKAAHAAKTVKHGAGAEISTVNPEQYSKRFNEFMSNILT

HL-60 [15] = test: Inhibition of human CLK1/CLK4 in HL-60 cells lysate assessed as reduction of labeling of acyl-phosphate ATP probe at 100 nM
[16] = target: Tyrosine-protein kinase JAK1 (Homo sapiens) (UniProt P23458); test: Inhibition of human JAK1 domain2 in HL-60 cells lysate assessed as reduction of labeling of acyl-phosphate ATP probe at 100 nM; type: cell-free

Chain of Tyrosine-protein kinase BTK (Homo sapiens) (Q06187 whole entry): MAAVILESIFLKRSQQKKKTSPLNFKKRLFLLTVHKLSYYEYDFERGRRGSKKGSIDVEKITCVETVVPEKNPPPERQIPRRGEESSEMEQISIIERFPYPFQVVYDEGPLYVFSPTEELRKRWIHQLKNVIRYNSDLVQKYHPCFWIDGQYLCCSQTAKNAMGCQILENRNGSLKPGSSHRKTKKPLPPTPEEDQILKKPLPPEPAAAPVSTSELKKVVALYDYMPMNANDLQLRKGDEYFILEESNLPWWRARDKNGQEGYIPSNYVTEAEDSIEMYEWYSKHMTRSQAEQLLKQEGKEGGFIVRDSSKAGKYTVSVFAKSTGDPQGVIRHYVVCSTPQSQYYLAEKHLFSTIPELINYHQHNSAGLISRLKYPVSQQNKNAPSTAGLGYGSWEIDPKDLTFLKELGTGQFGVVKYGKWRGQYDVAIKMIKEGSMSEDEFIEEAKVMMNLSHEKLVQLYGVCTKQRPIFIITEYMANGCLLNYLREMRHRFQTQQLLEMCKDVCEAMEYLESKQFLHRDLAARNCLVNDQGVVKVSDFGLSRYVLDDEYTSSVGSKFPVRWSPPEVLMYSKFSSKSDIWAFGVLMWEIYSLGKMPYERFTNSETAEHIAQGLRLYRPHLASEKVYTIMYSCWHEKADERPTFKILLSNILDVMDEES

Row | inhibition [1] [%] | inhibition [2] [%] | inhibition [4] [%] | inhibition [5] [%] | inhibition [6] [%] | inhibition [7] [%] | inhibition [8] [%] | MIC (Escherichia coli) [µM] | IC50 [9] [nM] | inhibition [11] [%] | inhibition [12] [%] | inhibition [13] [%] | inhibition [14] [%] | inhibition [16] [%] | Structure (SMILES) | inhibition at 0.1 µM (HL-60 [3]) [%] | inhibition at 0.1 µM (HL-60 [10]) [%] | inhibition at 0.1 µM (HL-60 [15]) [%]
1 | < 35 | < 35 | < 35 | < 35 | < 35 | < 35 | < 35 | > 298 | 0.6 | < 35 | < 35 | < 35 | < 35 | < 35 | C[C@H]1COc2c(NCCCc3ccccn3)c(F)c(N)c3c(=O)c(C#N)cn1c23 | < 35 | < 35 | < 35
2 | < 35 | < 35 | < 35 | < 35 | < 35 | < 35 | < 35 | 20 (≈ 8.03 µg/mL) | 16 | < 35 | < 35 | < 35 | < 35 | < 35 | C[C@H]1COc2c(NCCCn3cccn3)c(F)c(N)c3c(=O)c(C(=O)O)cn1c23 | < 35 | < 35 | < 35
3 | < 35 | < 35 | < 35 | < 35 | < 35 | < 35 | < 35 | 19 (≈ 7.84 µg/mL) | 10 | < 35 | < 35 | < 35 | < 35 | < 35 | C[C@H]1COc2c(NCCCc3ccccn3)c(F)c(N)c3c(=O)c(C(=O)O)cn1c23 | < 35 | < 35 | < 35
4 | < 35 | < 35 | < 35 | < 35 | < 35 | < 35 | < 35 | > 306 | 0.86 | < 35 | < 35 | < 35 | < 35 | < 35 | C[C@H]1COc2c(NCCCn3cccn3)c(F)c(N)c3c(=O)c(C#N)cn1c23 | < 35 | < 35 | < 35

Source: ChEMBL document CHEMBL1938230, “6-Position optimization of tricyclic 4-quinolone-based inhibitors of glycogen synthase kinase-3β: discovery of nitrile derivatives with picomolar potency” (Bioorg Med Chem Lett, 2012)
